Laboratory results reported in ChEMBL document CHEMBL5154916, “Multiparameter Optimization of Naphthyridine Derivatives as Selective α5-GABAA Receptor Negative Allosteric Modulators” (J Med Chem, 2022).
pIC50, pKi: −log10 of the molar value.

How the values were obtained:
[1] = Half life in Wistar rat total plasma at 1 mg/kg, iv by HPLC-MS/MS analysis; assay type: ADME, organism-based
[2] = AUC (0 to infinity) in Wistar rat total plasma at 1 mg/kg, iv by HPLC-MS/MS analysis; assay type: ADME, organism-based; design: time infinity, dose 1 mg/kg, route iv
[3] = Clearance in Wistar rat plasma at 1 mg/kg, iv by HPLC-MS/MS analysis; assay type: ADME, organism-based
[4] = target: T1, GABA-A receptor; alpha-5/beta-3/gamma-2 (Homo sapiens, UniProt P18507+P28472+P31644); assay: Displacement of [3H]Ro151788 from human recombinant alpha5beta3gamma2 GABAA receptor stably expressed in HEK293 cell membrane assessed as inhibition constant by radioligand binding assay; assay type: cell membranes
T1 sequence (P18507 whole entry): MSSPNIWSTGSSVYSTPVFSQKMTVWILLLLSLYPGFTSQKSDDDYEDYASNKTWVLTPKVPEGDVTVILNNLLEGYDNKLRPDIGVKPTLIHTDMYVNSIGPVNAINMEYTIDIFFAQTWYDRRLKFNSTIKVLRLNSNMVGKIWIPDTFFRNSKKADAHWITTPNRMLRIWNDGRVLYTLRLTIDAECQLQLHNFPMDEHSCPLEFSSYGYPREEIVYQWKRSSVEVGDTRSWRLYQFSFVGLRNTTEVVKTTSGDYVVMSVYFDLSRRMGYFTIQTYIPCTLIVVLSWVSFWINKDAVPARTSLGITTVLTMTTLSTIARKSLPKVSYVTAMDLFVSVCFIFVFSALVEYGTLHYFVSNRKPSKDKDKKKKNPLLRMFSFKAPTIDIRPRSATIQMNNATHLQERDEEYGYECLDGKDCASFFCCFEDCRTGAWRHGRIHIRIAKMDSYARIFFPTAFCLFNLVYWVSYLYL
T1 sequence (P28472 whole entry): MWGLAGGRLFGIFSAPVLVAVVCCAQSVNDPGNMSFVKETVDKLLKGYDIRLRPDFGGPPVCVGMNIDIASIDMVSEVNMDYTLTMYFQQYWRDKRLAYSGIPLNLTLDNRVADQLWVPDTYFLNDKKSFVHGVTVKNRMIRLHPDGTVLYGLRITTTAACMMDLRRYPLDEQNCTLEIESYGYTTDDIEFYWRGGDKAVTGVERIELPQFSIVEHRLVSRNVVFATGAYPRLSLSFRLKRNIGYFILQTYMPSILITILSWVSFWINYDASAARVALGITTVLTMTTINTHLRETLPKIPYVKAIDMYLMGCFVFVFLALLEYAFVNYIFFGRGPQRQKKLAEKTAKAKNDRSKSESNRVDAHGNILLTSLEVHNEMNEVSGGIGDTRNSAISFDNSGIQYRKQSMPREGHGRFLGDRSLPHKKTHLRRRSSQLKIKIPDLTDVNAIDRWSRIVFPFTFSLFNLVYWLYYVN
T1 sequence (P31644 whole entry): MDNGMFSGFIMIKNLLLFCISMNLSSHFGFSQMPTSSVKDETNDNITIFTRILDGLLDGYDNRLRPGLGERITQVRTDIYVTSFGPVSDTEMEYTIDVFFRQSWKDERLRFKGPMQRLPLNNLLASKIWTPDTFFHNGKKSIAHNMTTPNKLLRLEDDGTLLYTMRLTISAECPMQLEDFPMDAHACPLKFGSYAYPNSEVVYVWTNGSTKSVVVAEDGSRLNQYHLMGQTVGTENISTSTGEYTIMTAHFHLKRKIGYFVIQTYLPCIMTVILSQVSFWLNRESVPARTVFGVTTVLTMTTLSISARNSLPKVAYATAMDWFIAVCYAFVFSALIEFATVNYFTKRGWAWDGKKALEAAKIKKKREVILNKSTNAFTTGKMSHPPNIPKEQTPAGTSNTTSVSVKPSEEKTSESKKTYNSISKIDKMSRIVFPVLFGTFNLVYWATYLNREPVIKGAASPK

[5] = Apparent permeability in human Caco-2 cells at 10 uM by HPLC-UV analysis; assay type: ADME, cell-based
[6] = Tmax in Wistar rat total plasma at 1 mg/kg, po by HPLC-MS/MS analysis; assay type: ADME, organism-based
[7] = target: T2, GABA-A receptor; alpha-5/beta-3/gamma-2 (Homo sapiens) (UniProt P18507+P28472+P31644); assay: Negative allosteric modulation activity at human recombinant alpha5beta3gamma2 GABAA receptor stably expressed in HEK293 cells assessed as modulation at alpha5 subunit at 1 uM by Patch clamp method; assay type: cell-based; conditions: filed as negative allosteric modulator
[8] = target: Voltage-gated inwardly rectifying potassium channel KCNH2 (Homo sapiens, UniProt Q12809); assay: Inhibition of hERG expressed in CHO cells stably at -80 mV holding potential by automated patch clamp method; assay type: toxicity, cell-based
[9] = Ratio of drug level in brain to plasma in Wistar rat at 1 mg/kg, iv by HPLC-MS/MS analysis; assay type: ADME, organism-based; conditions: brain and plasma, read-out: BPR
[10] = Half life in Wistar rat total plasma at 1 mg/kg, po by HPLC-MS/MS analysis; assay type: ADME, organism-based
[11] = Metabolic stability in Wistar rat liver microsomes assessed as intrinsic clearance at 2.5 uM; assay type: ADME, Microsome; conditions: read-out: CLH
[12] = Metabolic stability in human liver microsomes assessed as intrinsic clearance at 2.5 uM; assay type: ADME, Microsome; conditions: read-out: CLH
[13] = Cmax in Wistar rat total plasma at 1 mg/kg, po by HPLC-MS/MS analysis; assay type: ADME, organism-based; design: dose 1 mg/kg, route po
[14] = Volume of distribution in Wistar rat plasma at 1 mg/kg, iv by HPLC-MS/MS analysis; assay type: ADME, organism-based
[15] = Passive permeability in human Caco-2 cells assessed as permeability damage ratio at 10 uM by HPLC-UV analysis; assay type: ADME, cell-based; conditions: caco-2, 10 µM
[16] = AUC (0 to infinity) in Wistar rat total plasma at 1 mg/kg, po by HPLC-MS/MS analysis; assay type: ADME, organism-based; design: time infinity, dose 1 mg/kg, route po
[17] = target: T2, GABA-A receptor; alpha-5/beta-3/gamma-2 (Homo sapiens); assay: Negative allosteric modulation activity at human recombinant alpha5beta3gamma2 GABAA receptor stably expressed in HEK293 cells assessed as modulation at alpha5 subunit at 10 uM by Patch clamp method; assay type: cell-based
[18] = target: GABA-A receptor; alpha-1/beta-3/gamma-2 (Homo sapiens) (UniProt P14867+P18507+P28472); assay: Negative allosteric modulation activity at human recombinant alpha1beta3gamma2 GABAA receptor stably expressed in HEK293 cells assessed as modulation at alpha1 subunit at 10 uM by Patch clamp method; assay type: cell-based; conditions: filed as negative allosteric modulator
[19] = Bioavailability in Wistar rat total plasma at 1 mg/kg, iv by HPLC-MS/MS analysis; assay type: ADME, organism-based
[20] = Ratio of drug level in brain to plasma in Wistar rat at 3 mg/kg, po measured at 1.5 hr post dose; assay type: ADME, organism-based; conditions: brain and plasma, read-out: BPR
[21] = filed as negative allosteric modulator

Chain of Voltage-gated inwardly rectifying potassium channel KCNH2 (Q12809 whole entry): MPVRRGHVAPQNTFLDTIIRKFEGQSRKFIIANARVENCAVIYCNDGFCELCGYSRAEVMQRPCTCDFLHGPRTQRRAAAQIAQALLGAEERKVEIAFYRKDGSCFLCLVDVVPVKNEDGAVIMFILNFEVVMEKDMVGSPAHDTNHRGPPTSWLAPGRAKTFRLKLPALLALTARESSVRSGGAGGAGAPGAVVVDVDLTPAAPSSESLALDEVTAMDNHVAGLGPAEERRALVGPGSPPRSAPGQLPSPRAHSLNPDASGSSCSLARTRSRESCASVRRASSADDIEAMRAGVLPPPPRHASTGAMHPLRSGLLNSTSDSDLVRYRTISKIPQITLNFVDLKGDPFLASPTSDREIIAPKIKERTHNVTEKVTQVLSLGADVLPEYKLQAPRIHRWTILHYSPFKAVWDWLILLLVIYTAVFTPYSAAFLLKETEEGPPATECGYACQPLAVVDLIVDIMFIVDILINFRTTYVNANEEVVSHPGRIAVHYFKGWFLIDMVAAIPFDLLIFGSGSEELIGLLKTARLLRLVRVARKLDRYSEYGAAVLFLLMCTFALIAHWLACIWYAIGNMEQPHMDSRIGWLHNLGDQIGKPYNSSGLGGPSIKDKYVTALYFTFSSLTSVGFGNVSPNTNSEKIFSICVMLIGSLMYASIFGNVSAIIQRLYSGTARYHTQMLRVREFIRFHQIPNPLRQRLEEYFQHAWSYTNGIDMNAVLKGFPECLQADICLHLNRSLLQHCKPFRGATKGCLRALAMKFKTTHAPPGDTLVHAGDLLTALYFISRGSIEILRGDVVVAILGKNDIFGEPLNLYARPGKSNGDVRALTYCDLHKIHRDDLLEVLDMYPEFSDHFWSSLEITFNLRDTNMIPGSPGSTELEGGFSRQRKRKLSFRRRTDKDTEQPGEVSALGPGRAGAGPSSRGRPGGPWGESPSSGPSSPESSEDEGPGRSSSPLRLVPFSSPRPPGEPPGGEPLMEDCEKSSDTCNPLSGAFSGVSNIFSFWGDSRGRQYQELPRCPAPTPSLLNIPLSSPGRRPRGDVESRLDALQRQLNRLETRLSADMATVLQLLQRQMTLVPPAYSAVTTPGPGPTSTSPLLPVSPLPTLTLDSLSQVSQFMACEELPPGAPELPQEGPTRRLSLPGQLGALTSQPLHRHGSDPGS

Compound	pKi [4]	Papp at 10 µM [5]	Activity [7]	microsomal CLint at 2.5 µM [11]	microsomal CLint at 2.5 µM [12]	Activity [17, 21]	Activity [18]	pIC50 [8]	Ratio [15]	further results
CC(=O)N1Cc2ccc(OCc3c(C)nnn3-c3ccc(F)cc3)nc2C1	8.49	54.5 ×10⁻⁶ cm/s	-19%	25 µL/min/mg	9 µL/min/mg	-30%	-7%	4.52	0.9	half-life [1]: 13.8 min; AUC(0-inf) [2]: 301 ng·h/mL; clearance [3]: 55.5 mL/min/kg; Tmax [6]: 30 min; Kp [9]: 0.38; half-life [10]: 51.6 min; Cmax [13]: 47.6 ng/mL; Vd [14]: 1.09 L/kg; AUC(0-inf) [16]: 43.7 ng·h/mL; bioavailability [19]: 14.5%; Kp at 1.5 h [20]: 0.38
Cc1nnn(-c2ccc(F)cc2)c1COc1ccc2c(n1)CCN(C(=O)C1CC(=O)N(C)C1)C2 (stereo not drawn)	7.46	7.54 ×10⁻⁶ cm/s	-32%	4 µL/min/mg	1 µL/min/mg	-47%		4.52	8.9	
Cc1nnn(-c2ccc(F)cc2)c1COc1ccc2c(n1)CCN(C(=O)NC1CC(=O)N(C)C1)C2 (stereo not drawn)	7.42	0.33 ×10⁻⁶ cm/s	-31%	11 µL/min/mg	4 µL/min/mg	-35%	-3%	< 4.52	134	
CC(=O)N1CCc2nc(OCc3c(C)nnn3-c3ccc(F)cc3)ccc2C1	7.55	52.8 ×10⁻⁶ cm/s	-25%	26 µL/min/mg	18 µL/min/mg	-36%	0%	< 4.52	0.74	half-life [1]: 12 min; AUC(0-inf) [2]: 218 ng·h/mL; clearance [3]: 77.9 mL/min/kg; Tmax [6]: 30 min; Kp [9]: 0.46; half-life [10]: 42.6 min; Cmax [13]: 21.4 ng/mL; Vd [14]: 1.36 L/kg; AUC(0-inf) [16]: 20.4 ng·h/mL; bioavailability [19]: 9.4%; Kp at 1.5 h [20]: 0.45
Cc1nnn(-c2ccc(F)cc2)c1COc1ccc2c(n1)CCN(CCS(C)(=O)=O)C2=O	7.26	22 ×10⁻⁶ cm/s	-41%	9 µL/min/mg	1 µL/min/mg		-16%	4.52	3.2	Activity [17]: -51%; Kp at 1.5 h [20]: 0.02
Cc1nnn(-c2ccc(F)cc2)c1COc1ccc2c(n1)CCN(C(=O)NC1CCOC1)C2 (stereo not drawn)	7.55	18.7 ×10⁻⁶ cm/s	-32%	39 µL/min/mg	10 µL/min/mg	-34%		4.68	4.7	
Cc1nnn(-c2ccc(F)cc2)c1COc1ccc2c(n1)CCN(C(=O)C1CCCO1)C2 (stereo not drawn)	7.41	47.1 ×10⁻⁶ cm/s	-30%	46 µL/min/mg	15 µL/min/mg	-43%	-8%	< 4.52	0.92	Kp at 1.5 h [20]: 0.31
Cc1nnn(-c2ccc(F)cc2)c1COc1ccc2c(n1)CCN(C(=O)C1CCOC1)C2 (stereo not drawn)	7.38	44.6 ×10⁻⁶ cm/s	-34%	29 µL/min/mg	13 µL/min/mg	-39%	-7%	4.52	1.1	Kp at 1.5 h [20]: 0.21

Second part, led by results:

pKi [4]	Papp at 10 µM [5]	Activity [7]	microsomal CLint at 2.5 µM [11]	microsomal CLint at 2.5 µM [12]	Activity [17, 21]	Activity [18]	Compound	pIC50 [8]	Ratio [15]	further results
7.64		-23%			-36%	-12%	Cc1onc(-c2ccc(F)cc2)c1COc1ccc2c(n1)CCN(CC1CCCS1(=O)=O)C2=O (stereo not drawn)	5.74		
7.89		-9%	214 µL/min/mg	16 µL/min/mg	-25%	-2%	Cc1onc(-c2ccc(F)cc2)c1COc1ccc2c(n1)CCN(C(C)C)C2=O	5.36		
8.15		-24%	158 µL/min/mg	24 µL/min/mg	-40%	-14%	Cc1onc(-c2ccc(F)cc2)c1COc1ccc2c(n1)CCN(C(=O)C1CCOC1)C2 (stereo not drawn)	5.44		
8.10		-25%	139 µL/min/mg	29 µL/min/mg	-39%	-10%	Cc1onc(-c2ccc(F)cc2)c1COc1ccc2c(n1)CCN(C1CCOC1)C2=O (stereo not drawn)	5.49		
8.05		-29%			-35%	-10%	Cc1onc(-c2ccc(F)cc2)c1COc1ccc2c(n1)CCN(Cc1ccno1)C2=O	5.60		
8.39		-25%	227 µL/min/mg	14 µL/min/mg	-42%	2%	Cc1onc(-c2ccc(F)cc2)c1COc1ccc2c(n1)CCNC2=O	5.00		
8.44		-22%	36 µL/min/mg	10 µL/min/mg	-38%	-10%	Cc1onc(-c2ccc(F)cc2)c1COc1ccc2c(n1)CCN(C(=O)C1CCS(=O)(=O)CC1)C2	5.54		
8.04		-20%	93 µL/min/mg	10 µL/min/mg	-37%	-9%	Cc1onc(-c2ccc(F)cc2)c1COc1ccc2c(n1)CCN(C(=O)C1CCOCC1)C2	5.24		
8.11	49.3 ×10⁻⁶ cm/s	-33%	89 µL/min/mg	7 µL/min/mg	-46%	-12%	Cc1onc(-c2ccc(F)cc2)c1COc1ccc2c(n1)CCN(CCS(C)(=O)=O)C2=O	5.96	1.1	
8.55		-21%	404 µL/min/mg	28 µL/min/mg	-31%	-8%	Cc1onc(-c2ccc(F)cc2)c1COc1ccc2c(n1)CCN(C)C2=O	5.42		
